Reference: ChEMBL document CHEMBL5046251, “Discovery of a Series of Pyrimidine Carboxamides as Inhibitors of Vanin-1” (J Med Chem, 2022)
Calls of active or inactive are those of the source. No cut-off for these calls is given here.

What was measured:
[1] = Apparent permeability across apical to basolateral side in RRCK cells; conditions: dog, MDCK
[2] = target: T1, Pantetheinase (Mus musculus, UniProt Q9Z0K8); test: Inhibition of mouse vanin-1
T1 sequence (Q9Z0K8 whole entry): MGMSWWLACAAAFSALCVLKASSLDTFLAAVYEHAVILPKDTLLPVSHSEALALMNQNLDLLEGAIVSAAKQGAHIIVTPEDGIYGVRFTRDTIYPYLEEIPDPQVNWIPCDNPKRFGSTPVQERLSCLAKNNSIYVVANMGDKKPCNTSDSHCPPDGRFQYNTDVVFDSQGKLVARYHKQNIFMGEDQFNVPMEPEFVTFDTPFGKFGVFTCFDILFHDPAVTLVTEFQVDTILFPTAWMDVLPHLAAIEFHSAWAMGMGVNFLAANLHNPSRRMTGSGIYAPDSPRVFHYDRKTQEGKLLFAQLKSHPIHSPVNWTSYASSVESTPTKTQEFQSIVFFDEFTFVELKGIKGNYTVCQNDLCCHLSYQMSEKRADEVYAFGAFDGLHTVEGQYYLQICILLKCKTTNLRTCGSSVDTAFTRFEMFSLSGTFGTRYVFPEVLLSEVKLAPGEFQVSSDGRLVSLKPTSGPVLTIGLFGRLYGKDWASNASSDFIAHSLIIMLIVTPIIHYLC

[3] = Volume of distribution at steady state in mouse; type: ADME, organism-based; conditions: in vivo, read-out: Vdss
[4] = Lipophilicity, log D of the compound in Octanol/buffer by shake-flask method
[5] = Oral bioavailability in mouse; type: ADME, organism-based; conditions: in vivo
[6] = Total clearance in mouse; type: ADME, organism-based; conditions: in vivo
[7] = system: Mus musculus; test: Anti-colitis activity against DSS-induced colitis BALB/c mouse model assessed as effect on colon length at 50 mg/kg, sc measured after 14 days; type: functional, organism-based; conditions: time 14.0 day
[8] = Apparent intrinsic clearance in human liver microsome; type: ADME; conditions: liver microsomes, read-out: CLH
[9] = Unbound clearance in mouse; type: ADME, organism-based; conditions: in vivo
[10] = target: T2, Pantetheinase (Homo sapiens, UniProt O95497); test: Inhibition of human plasma vanin-1 using pantetheine-7-amino-4-trifluoromethykournarin as substrate preincubated for 30 mins followed by substrate addition; type: cell-free
T2 sequence (O95497 whole entry): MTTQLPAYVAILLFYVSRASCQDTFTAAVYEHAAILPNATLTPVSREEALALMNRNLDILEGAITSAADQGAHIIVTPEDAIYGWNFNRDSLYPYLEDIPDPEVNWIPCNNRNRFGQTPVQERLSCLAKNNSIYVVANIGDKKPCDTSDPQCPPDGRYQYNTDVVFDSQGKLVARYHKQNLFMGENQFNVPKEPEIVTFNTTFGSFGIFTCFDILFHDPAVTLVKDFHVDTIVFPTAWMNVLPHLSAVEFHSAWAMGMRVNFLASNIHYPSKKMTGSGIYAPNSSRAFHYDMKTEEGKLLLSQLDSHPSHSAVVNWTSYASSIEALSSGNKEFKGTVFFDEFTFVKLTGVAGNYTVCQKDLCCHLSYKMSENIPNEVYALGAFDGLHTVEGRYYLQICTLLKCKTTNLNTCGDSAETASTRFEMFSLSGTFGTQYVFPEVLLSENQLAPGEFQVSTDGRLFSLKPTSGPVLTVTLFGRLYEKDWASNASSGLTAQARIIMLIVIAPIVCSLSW

[11] = system: Mus musculus; test: Anti-colitis activity against DSS-induced BALB/c mouse model assessed as increase in body weight at 50 mg/kg, sc measured on day 8 and 9; type: functional, organism-based; conditions: time 8-9 day
[12] = Apparent intrinsic clearance in mouse liver microsome; type: ADME; conditions: liver microsomes, read-out: CLH
[13] = system: Mus musculus; test: Anti-colitis activity against DSS-induced BALB/c mouse model assessed as reduction in disease activity index at 50 mg/kg, sc measured on day 8 and 9; type: functional, organism-based; conditions: time 8-9 day
[14] = target: T3, Biotinidase (Homo sapiens, UniProt P43251); test: Inhibition of N-terminal FLAG/His6-tagged human biotinidase expressed in COS cells using biotinyl-7-amino-4-trifluoromethylcoumarin as substrate preincubated for 10 mins followed by substrate addition and measured after 90 mins; type: cell-based
T3 sequence (P43251 whole entry): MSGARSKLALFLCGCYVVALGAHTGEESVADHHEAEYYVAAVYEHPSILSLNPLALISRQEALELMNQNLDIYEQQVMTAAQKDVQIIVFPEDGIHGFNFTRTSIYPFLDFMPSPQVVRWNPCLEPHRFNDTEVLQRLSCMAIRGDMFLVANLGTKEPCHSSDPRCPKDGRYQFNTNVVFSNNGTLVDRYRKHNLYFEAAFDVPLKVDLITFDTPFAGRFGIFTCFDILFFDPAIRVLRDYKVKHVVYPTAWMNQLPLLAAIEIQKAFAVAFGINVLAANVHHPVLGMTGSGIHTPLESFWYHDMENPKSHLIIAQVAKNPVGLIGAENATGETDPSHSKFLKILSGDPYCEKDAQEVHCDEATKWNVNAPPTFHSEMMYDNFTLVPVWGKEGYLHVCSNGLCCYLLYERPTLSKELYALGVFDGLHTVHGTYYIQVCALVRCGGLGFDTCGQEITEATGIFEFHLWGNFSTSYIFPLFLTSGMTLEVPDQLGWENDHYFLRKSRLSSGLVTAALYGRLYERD

[15] = Intrinsic clearance in human liver microsomes; type: ADME, Microsome
[16] = Half life in mouse; type: ADME, organism-based; conditions: in vivo
[17] = Plasma protein binding in mouse assessed as unbound fraction; type: ADME, cell-free
[18] = Plasma protein binding in human assessed as unbound fraction; type: ADME, cell-free
[19] = Half life in rat; type: ADME; conditions: in vivo
[20] = Intrinsic clearance in rat hepatocytes assessed per million cells; type: ADME, cell-based, Hepatocyte
[21] = target: T4, Pantetheinase (Homo sapiens) (UniProt O95497); test: Binding affinity to recombinant N-terminal FLAG/His6-tagged human vanin-1 expressed in CHO cells assessed as binding constant (Kon) by surface plasmon resonance analysis
T4 sequence (whole entry): T2 sequence (O95497 whole entry)

[22] = target: T5, Caspase-3 (Homo sapiens, UniProt P42574); test: Inhibition of caspase-3 (unknown origin)
T5 sequence (P42574 whole entry): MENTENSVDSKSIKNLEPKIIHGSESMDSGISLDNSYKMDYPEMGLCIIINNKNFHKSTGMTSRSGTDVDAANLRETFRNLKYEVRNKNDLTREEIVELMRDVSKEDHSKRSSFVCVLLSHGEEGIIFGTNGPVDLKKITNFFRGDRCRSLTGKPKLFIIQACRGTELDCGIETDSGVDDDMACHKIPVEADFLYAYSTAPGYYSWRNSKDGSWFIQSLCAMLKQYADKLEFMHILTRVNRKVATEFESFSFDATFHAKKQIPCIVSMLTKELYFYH

[23] = Intrinsic clearance in human hepatocytes assessed per million cells; type: ADME, cell-based, Hepatocyte
[24] = Efflux ratio in human MDR cells; type: ADME, cell-based
[25] = target: T2, Pantetheinase; test: Binding affinity to recombinant N-terminal FLAG/His6-tagged human vanin-1 expressed in CHO cells assessed as dissociation constant by surface plasmon resonance analysis
[26] = target: T6, Caspase-1 (Homo sapiens, UniProt P29466); test: Inhibition of caspase-1 (unknown origin)
T6 sequence (P29466 whole entry): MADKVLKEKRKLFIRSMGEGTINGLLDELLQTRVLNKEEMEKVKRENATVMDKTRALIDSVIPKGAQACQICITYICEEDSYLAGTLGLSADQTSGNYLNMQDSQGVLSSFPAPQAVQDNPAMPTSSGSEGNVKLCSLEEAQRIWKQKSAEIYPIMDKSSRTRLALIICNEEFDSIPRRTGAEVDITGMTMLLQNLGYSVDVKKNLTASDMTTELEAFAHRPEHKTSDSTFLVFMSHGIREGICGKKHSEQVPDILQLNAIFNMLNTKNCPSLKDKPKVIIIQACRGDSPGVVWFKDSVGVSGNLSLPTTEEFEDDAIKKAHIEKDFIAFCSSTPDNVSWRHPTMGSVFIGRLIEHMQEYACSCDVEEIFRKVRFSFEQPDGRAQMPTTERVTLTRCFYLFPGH

[27] = Volume of distribution at steady state in rat; type: ADME; conditions: in vivo, read-out: Vdss
[28] = Clearance in rat; type: ADME; conditions: in vivo
[29] = target: T7, Caspase-2 (Homo sapiens, UniProt P42575); test: Inhibition of caspase-2 (unknown origin)
T7 sequence (P42575 whole entry): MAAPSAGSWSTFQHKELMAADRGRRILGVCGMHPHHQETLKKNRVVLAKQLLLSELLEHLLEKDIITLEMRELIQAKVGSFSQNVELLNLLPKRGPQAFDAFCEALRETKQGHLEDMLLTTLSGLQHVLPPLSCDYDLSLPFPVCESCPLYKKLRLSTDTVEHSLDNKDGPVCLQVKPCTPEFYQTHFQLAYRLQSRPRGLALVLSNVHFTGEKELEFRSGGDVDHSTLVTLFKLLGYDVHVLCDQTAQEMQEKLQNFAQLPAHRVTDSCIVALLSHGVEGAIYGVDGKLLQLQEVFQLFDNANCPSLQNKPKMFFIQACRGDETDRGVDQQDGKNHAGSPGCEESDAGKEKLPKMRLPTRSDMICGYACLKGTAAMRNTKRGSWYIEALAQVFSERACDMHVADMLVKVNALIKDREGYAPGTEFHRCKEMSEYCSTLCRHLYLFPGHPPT

[30] = Oral bioavailability in rat; type: ADME, organism-based; conditions: in vivo
[31] = target: T2, Pantetheinase; test: Inhibition of recombinant N-terminal FLAG/His6-tagged human vanin-1 expressed in CHO cells at 10 uM by 1H NMR analysis; type: cell-based
[32] = target: T4, Pantetheinase (Homo sapiens); test: Binding affinity to recombinant N-terminal FLAG/His6-tagged human vanin-1 expressed in CHO cells assessed as binding constant (Koff) by surface plasmon resonance analysis
[33] = Clearance in rat at 1 mg/kg, iv measured upto 24 hrs by LC-MS/MS analysis; type: ADME, organism-based; conditions: in vivo
[34] = Renal clearance in rat at 1 mg/kg, iv assessed glomerular filtration rate; type: ADME, organism-based; conditions: in vivo
[35] = Volume of distribution in rat at 1 mg/kg, iv measured upto 24 hrs by LC-MS/MS analysis; type: ADME, organism-based; conditions: in vivo
[36] = system: Mus musculus; test: Anti-colitis activity against DSS-induced BALB/c mouse model assessed as increase in body weight at 50 mg/kg, po, qd administered for 10 days; type: functional, organism-based; conditions: time 10.0 day
[37] = Unbound drug concentration in serum of DSS-induced BALB/c mouse colitis model at 50 mg/kg administered for 10 days; type: ADME, organism-based; conditions: in vivo, 240 h, time 10 day
[38] = Intrinsic clearance in human hepatocytes assessed per million cells by relay assay method; type: ADME, cell-based, Hepatocyte
[39] = Half life in rat at 1 mg/kg, iv measured upto 24 hrs by LC-MS/MS analysis; type: ADME, organism-based; conditions: in vivo
[40] = AUC in mouse at 10 mg/kg, sc measured upto 24 hrs by LC-MS/MS analysis; type: ADME, organism-based; parameters: route subcutaneous, dose 10 mg/kg, time <=24; conditions: in vivo
[41] = AUC in rat at 10 mg/kg, po measured upto 24 hrs by LC-MS/MS analysis; type: ADME, organism-based; parameters: route oral, dose 10 mg/kg, time <=24; conditions: in vivo
[42] = system: Mus musculus; test: Anti-colitis activity against DSS-induced BALB/c mouse model assessed as reduction in disease activity index at 50 mg/kg, po, qd administered for 10 days; type: functional, organism-based; conditions: time 10.0 day
[43] = AUC in rat at 1 mg/kg, iv measured upto 24 hrs by LC-MS/MS analysis; type: ADME, organism-based; parameters: route intravenous, dose 1 mg/kg, time <=24; conditions: in vivo
[44] = Oral bioavailability in rat at 10 mg/kg measured upto 24 hrs by LC-MS/MS analysis; type: ADME, organism-based; conditions: in vivo

## N#Cc1cccc(C(=O)c2cnc(NC3(c4cncnc4)CC3)nc2)c1
[1]
  Papp A→B: 27 ×10⁻⁶ cm/s
[2]
  IC50: 4.8 nM
[3]
  Vd: 1.1 L/kg
[4]
  logD: 1.2
[5]
  bioavailability: 29%
[6]
  clearance: 29 mL/min/kg
[7]
  Activity: Active
[8]
  CLint scaled: 14 mL/min/kg
[9]
  CL free: 49 mL/min/kg
[10]
  IC50: 12 nM
[11]
  Activity: Active
[12]
  CLint scaled: 39 mL/min/kg
[13]
  Activity: Active
[14]
  IC50: 24000 nM
[15]
  Intrinsic clearance: 14 µL/min/mg
[16]
  half-life: 60 min
[17]
  fraction unbound: 0.0046

## O=C(c1cnc(NC2(c3cncnc3)CC2)nc1)N1CCCCC1
[18]
  fraction unbound: 0.00918
[1]
  Papp A→B: 9.5 ×10⁻⁶ cm/s
[19]
  half-life: 9 min
[20]
  CLint: 45 µL/min/1e6 cells
[21]
  K: 8.1 10^7/M/s
[2]
  IC50: 10.2 nM
[4]
  logD: 0.7
[22]
  IC50: > 10000 nM
[23]
  CLint: 11 µL/min/1e6 cells
[24]
  efflux ratio: 3.2
[25]
  Kd: 20 nM
[26]
  IC50: > 10000 nM
[27]
  Vd: 1.1 L/kg
[14]
  IC50: 18000 nM
[28]
  clearance: 88 mL/min/kg
[29]
  IC50: > 10000 nM
[30]
  bioavailability: 11%
[15]
  Intrinsic clearance: < 10 µL/min/mg
[31]
  IC50: 115 nM
[32]
  K: 0.52 s⁻¹

## C[C@H](Nc1ncc(C(=O)N2CCC3(CCOCC3)C2)cn1)c1cnccn1
[1]
  Papp A→B: 14 ×10⁻⁶ cm/s
[33]
  clearance: 30 mL/min/kg
[34]
  CL: 25%
[35]
  Vd: 0.98 L/kg
[36]
  Activity: Active
[20]
  CLint: 6 µL/min/1e6 cells
[2]
  IC50: 0.56 nM
[4]
  logD: 0.4
[23]
  CLint: < 3 µL/min/1e6 cells
[37]
  Ct: 2852 nM
[38]
  CLint: 0.25 µL/min/1e6 cells
[39]
  half-life: 48 min
[40]
  AUC at 24 h: 6590 ng·h/mL
[41]
  AUC at 24 h: 2250 ng·h/mL
[42]
  Activity: Active
[43]
  AUC at 24 h: 616 ng·h/mL
[14]
  IC50: 2800 nM
[44]
  bioavailability: 37%
[15]
  Intrinsic clearance: < 8 µL/min/mg
